Laboratory results: the METLIN SMRT retention time set (Domingo-Almenara et al. 2019)

Assay: gradient 5% acetonitrile 3 min, to 50% in 2 min, to 85% in 15 min, held 3 min, 100 µL/min
Details: column: Zorbax Extend-C18 2.1 x 50 mm; eluents: water / acetonitrile, 0.1% formic acid
Summary of the method: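 Retention times of pure standards were taken from adduct peaks that were selected by computer and manually inspected. Over 3 months, mixtures of ~100 molecules were run by HPLC–quadrupole time-of-flight mass spectrometry in positive and negative ionization mode. The Zorbax Extend-C18 column (2.1 × 50 mm, 1.8 μm) ran at 100 μL/min in water and acetonitrile, each containing 0.1% formic acid, with 40 μL dead volume and 900 μL dwell volume.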

COc1cccc(CNC(=O)c2cc3c(-c4cccs4)nn(-c4ccccc4)c3n2C)c1
RP-LC retention time: 1120 s

O=S(=O)(Cc1ccccc1F)N1CCC(c2noc(-c3cccnc3)n2)C1 (stereo not drawn)
RP-LC retention time: 826 s

O=C1COc2cc(S(=O)(=O)N3CCC(C(=O)N4CCc5ccccc54)CC3)c(Cl)cc2N1
RP-LC retention time: 844 s

CCn1ccc2sc(C)c(C(=O)N3CCN(c4ccc(F)cc4)CC3)c2c1=O
RP-LC retention time: 808 s

NC(=O)/C(=C\c1ccncc1)c1cccc2ccccc12
RP-LC retention time: 647 s

COc1ccc(Cl)cc1NC(=O)N1CCC2(CC1)N=C(c1cccc(F)c1)C(=O)N2
RP-LC retention time: 882 s

O=C(CN1C(=O)CCCc2cc(S(=O)(=O)N3CCCCCC3)ccc21)Nc1ccccc1F
RP-LC retention time: 953 s

O=C(c1ccncc1)N1CCc2c([nH]c3ccccc23)C1c1ccc(Cl)cc1 (stereo not drawn)
RP-LC retention time: 1000 s

Cc1cc(C)cc(-n2ccn(Cc3nc(-c4ccc(Cl)c(F)c4)no3)c(=O)c2=O)c1
RP-LC retention time: 976 s

NC(=O)c1c(NC(=O)c2ccc(Br)s2)sc2c1CCCCC2
RP-LC retention time: 1040 s

Cc1csc(-c2cc(S(=O)(=O)NCCN3CCOCC3)cn2CC(=O)N2CCCCC2)n1
RP-LC retention time: 654 s

CCOC(=O)N1CCC(NC(=O)c2coc(NC(=O)c3ccco3)n2)CC1
RP-LC retention time: 605 s

O=C(CSCc1ccccc1)Nc1nnc(-c2ccsc2)o1
RP-LC retention time: 757 s

CC(=O)NCCc1csc(C2CCCN(C(=O)C3(c4ccccc4)CC3)C2)n1 (stereo not drawn)
RP-LC retention time: 705 s

CCCCc1cc(=O)oc2cc(C)cc(OC(C)C(=O)N3CCC4(O)CCCCC4C3)c12 (stereo not drawn)
RP-LC retention time: 952 s

Cc1ccc(-n2nc3c(N4CCN(C(=O)NCC5CCCO5)CC4)nnc(C)c3c2C)cc1 (stereo not drawn)
RP-LC retention time: 590 s

CCc1cc(=O)n(CC(=O)NCc2ccc(F)cc2Cl)c(N2CCOCC2)n1
RP-LC retention time: 749 s

COc1cccc(-c2cc(=O)n3c4ccccc4n(CC(=O)NC(C)C)c3n2)c1
RP-LC retention time: 858 s

Cc1ccc(F)cc1NS(=O)(=O)c1cc2n(c1)CCCNC2=O
RP-LC retention time: 671 s

O=C(Nc1ccc2nnc(-c3ccc(C(=O)N4CCSCC4)cc3)n2c1)C1CCC1
RP-LC retention time: 885 s

Cc1ccc(S(=O)(=O)NCCn2c(C)cnc2C2CCC2)c(C)c1
RP-LC retention time: 675 s

CCN1CCCn2cc(S(=O)(=O)N3CCN(c4ccccc4)CC3)cc2C1=O
RP-LC retention time: 813 s

COC(=O)c1c(N)n(-c2cccc(F)c2)c2nc3ccccc3nc12
RP-LC retention time: 685 s

CCC(=O)NCc1csc(C2CCN(C(=O)c3ccc(Br)cc3)CC2)n1
RP-LC retention time: 722 s

O=C(NCCCN1CCCC1)c1cc2n(n1)CCCN(Cc1ccc(F)cc1)C2=O
RP-LC retention time: 619 s

COc1ccc2[nH]cc(CCNC(=O)c3ccc(N4CCCC4)c(S(=O)(=O)N4CCCC4)c3)c2c1
RP-LC retention time: 921 s

Cn1cccc1C(=O)C(=O)NCc1ccc(Cl)cc1
RP-LC retention time: 906 s

CCc1nc2cc(-c3noc(-c4ccc(CS(=O)(=O)c5ccccc5)cc4)n3)ccc2o1
RP-LC retention time: 1140 s

CCC(CO)Nc1ncc([N+](=O)[O-])c(N)n1 (stereo not drawn)
RP-LC retention time: 570 s

COc1ccc(CN2C=C(C(=O)OCc3ccccc3Cl)C(C)=NS2(=O)=O)cc1
RP-LC retention time: 1170 s

OCC(O)COc1cccc2ccccc12 (stereo not drawn)
RP-LC retention time: 758 s

COc1ccc(N2CCN(C(=O)CN3C(=O)c4ccccc4Sc4ncccc43)CC2)cc1
RP-LC retention time: 725 s

COc1ccc(NC(=O)Cc2csc3nc(-c4ccccc4)cn23)cc1
RP-LC retention time: 751 s

CCn1ccc(C(=O)NC(C)C)n1
RP-LC retention time: 642 s

CCN(CC)C(=O)c1ccc(Cn2nc(C)c(S(=O)(=O)N3CCC(C)CC3)c2C)cc1
RP-LC retention time: 917 s

Cc1ccc(N2C=C(C(=O)N3CCCCC3)S(=O)(=O)c3ccccc32)cc1C
RP-LC retention time: 953 s

CCc1noc(NC(C)=O)c1-c1ccc(OC)c(S(=O)(=O)Nc2ccc(Cl)cc2C)c1
RP-LC retention time: 841 s

CC(C)n1c(N2CCN(C(=O)c3ccccn3)CC2)cc(=O)n(C(C)C)c1=O
RP-LC retention time: 709 s

COC(=O)c1ccc2c(=O)n(-c3cccc(Cl)c3)c(N3CCSC3)nc2c1
RP-LC retention time: 1110 s

CCc1ccccc1N1C=C(C(=O)OC)S(=O)(=O)c2ccccc21
RP-LC retention time: 918 s

Cc1ccc(C(=O)N2CCN(S(=O)(=O)c3cc(-c4noc(C5CCC5)n4)cs3)CC2)s1
RP-LC retention time: 1060 s

CC(C)c1nnc2n1CCN(C(=O)COc1cccc(Cl)c1)C2
RP-LC retention time: 667 s

COc1ccc(NC(=O)CN2CCc3[nH]c4ccc(OC)cc4c(=O)c3C2)c(OC)c1
RP-LC retention time: 609 s

COc1ccc(OC)c(NC(=O)c2c(OC)cc(=O)n3c2CCCC3)c1
RP-LC retention time: 695 s

COc1ccc(C(=O)N2CCC(n3nc(-c4ccsc4)ccc3=O)CC2)cc1
RP-LC retention time: 797 s

Cc1ccc(/C=C/c2nc(-c3ccc4c(c3)oc(=O)n4C)no2)cc1
RP-LC retention time: 1110 s

COC[C@@H]1CN(Cc2cn(C)c3ccccc23)C[C@H]1c1nc(C)no1
RP-LC retention time: 656 s

CC(C)n1nnc2cc(S(=O)(=O)N3CCCC3C(=O)N3CCN(c4ccccn4)CC3)ccc21 (stereo not drawn)
RP-LC retention time: 609 s

Cc1csc(-c2ccc(CNC(=O)c3cc4ccccc4[nH]3)cc2)n1
RP-LC retention time: 938 s

CC(C)NC(=O)CN1CCN(Cc2nc(-c3ccc(N4CCCCC4)nc3)no2)CC1
RP-LC retention time: 594 s

Cc1cccc(N2CCN(c3ccc4nnc(CCc5nc(-c6ccccc6C)no5)n4n3)CC2)c1
RP-LC retention time: 1220 s

Cc1ccccc1NC(=O)N1CCC(N(CCC(C)C)C2CCOCC2)CC1
RP-LC retention time: 636 s

CN(C)c1ccc(O)c2c1C[C@H]1C[C@H]3[C@H](N(C)C)C(=O)C(C(N)=O)=C(O)[C@@]3(O)C(=O)C1=C2O
RP-LC retention time: 596 s

O=C(CCc1nnc2c3cc(-c4ccccc4)nn3ccn12)N1CCN(C2CCCCC2)CC1
RP-LC retention time: 628 s

CC1=C(c2ccccc2)S(=O)(=O)N=C1N1CCCN(C(=O)Nc2cccc(C)c2)CC1
RP-LC retention time: 709 s

COCC(=O)NC1CCC12CCN(S(=O)(=O)c1c(C)noc1C)CC2 (stereo not drawn)
RP-LC retention time: 740 s

CN(C)c1cccc(C(=O)NC2CCN(c3ccccc3)C2=O)c1 (stereo not drawn)
RP-LC retention time: 667 s

COc1ccc(CNC(=O)C2CCCN(c3ccc(=O)n(-c4ccc(C)c(Cl)c4)n3)C2)cc1OC (stereo not drawn)
RP-LC retention time: 837 s

COc1ccc(CCN(C)CCc2ccc(OC)c(OC)c2)cc1OC
RP-LC retention time: 668 s

CCc1nc(-c2csc(S(=O)(=O)N3CCC(C(=O)Nc4cc(C)cc(C)c4)CC3)c2)no1
RP-LC retention time: 1090 s

O=C(Nc1ccc2c(c1)OCCO2)c1cn(-c2cc(N3CCSCC3)ncn2)cn1
RP-LC retention time: 832 s

O=C(CN1CCN(c2nccn2-c2ccccc2F)CC1)Nc1ccc(F)cc1F
RP-LC retention time: 562 s

Cc1scc(CN2CCN(c3ccccn3)CC2)c1C
RP-LC retention time: 578 s

CCN1CCC2(CC1)OC(=O)C(C)=C2C(=O)NCCc1ccc(Cl)cc1
RP-LC retention time: 653 s

COc1ccc(CNC(=O)Cc2nnc(-c3ccsc3)o2)c(OC)c1
RP-LC retention time: 692 s

CNC(=O)C1CCCN(C(=O)Nc2ccc(NC(=O)Nc3ccc(OC)cc3)cc2)C1 (stereo not drawn)
RP-LC retention time: 633 s

NC1N=C(c2ccccc2)c2ccccc2NC1=O (stereo not drawn)
RP-LC retention time: 568 s

CCN(CC)CCCNC(=O)CN1C(=O)C2CCCCN2c2ccc(C(=O)N(C)C)cc21 (stereo not drawn)
RP-LC retention time: 595 s

Cn1c(C(=O)NCC2CCCO2)cc2c(=O)oc3ccccc3c21 (stereo not drawn)
RP-LC retention time: 713 s

CN1C(=O)CCC2(CNC(=O)Nc3ccc4c(c3)OCCO4)CCCC=C12 (stereo not drawn)
RP-LC retention time: 722 s

Cc1ccc(-c2cc3c(=O)n(Cc4noc(CN5CCc6ccccc65)n4)ccn3n2)cc1
RP-LC retention time: 1100 s

Cc1ccc(CN2CC(n3cc(COc4ccc(F)cc4)nn3)C2)s1
RP-LC retention time: 684 s

CCOc1ccc(-c2noc(CN3N=NC4C(=O)N(c5ccc(F)cc5)C(=O)C43)n2)cc1OC (stereo not drawn)
RP-LC retention time: 936 s

Cc1ccc(-c2cc3n(n2)C(NCCc2cccs2)CNC3=O)cc1 (stereo not drawn)
RP-LC retention time: 739 s

COc1ccc(-c2nnc(Cc3nc(-c4ccc(SC)cc4)no3)o2)cc1
RP-LC retention time: 1040 s

COC(=O)c1sc2ccccc2c1S(=O)(=O)N1CCN(c2ccccn2)CC1
RP-LC retention time: 752 s

CC(C)C(NC(=O)NCc1ccccc1)C(=O)N1CCc2ccccc21 (stereo not drawn)
RP-LC retention time: 896 s

CCC(CC)C(=O)N1CCc2[nH]nc(C(=O)NCCCc3ccccc3)c2C1
RP-LC retention time: 797 s

CCc1nc(OCC(=O)Nc2ccc(F)c(Cl)c2)c2ccccc2n1
RP-LC retention time: 888 s

COc1ccc(NS(=O)(=O)c2cc(-c3nc(C(C)(C)C)cs3)cs2)cc1F
RP-LC retention time: 1180 s

CCN1CCN(c2nc(F)c3c(c2F)S(=O)(=O)CCN3CC2CCCO2)CC1 (stereo not drawn)
RP-LC retention time: 596 s

CCCCN(C)C(=O)CC1Sc2ncccc2N(CC(C)C)C1=O (stereo not drawn)
RP-LC retention time: 876 s

CCOc1ccc(C2Cn3nnc(-c4nc(-c5cccc(Br)c5)no4)c3CO2)cc1 (stereo not drawn)
RP-LC retention time: 1310 s

O=c1ccc(N2CCCN(S(=O)(=O)c3ccc(Cl)cc3)CC2)nn1-c1ccccc1
RP-LC retention time: 868 s

Cc1ccc(S(=O)(=O)N2CCc3c(c(-c4nnc(-c5ccccc5F)o4)nn3C)C2)cc1
RP-LC retention time: 955 s

Cc1ccc(CNC(=O)c2nnc(-c3ccc(S(=O)(=O)N(C)C)cc3)o2)o1
RP-LC retention time: 826 s

COc1ccccc1C(=O)NC1CCN(c2cc(-c3ccccc3)[nH]n2)C1 (stereo not drawn)
RP-LC retention time: 718 s

CCc1noc(C2(NC(=O)c3ccc(C#N)cc3)CCCCC2)n1
RP-LC retention time: 896 s
